PubChem BioAssay (NCI)
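The concentration for 50% growth inhibition is given as GI50. Definition used: TGI = concentration required for complete inhibition of growth.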

Columns and labels:
Assay in all cases: DTP human tumour cell line panel, 384-well format
[1] = system: OVCAR-3 ovarian
[2] = system: BT-549 breast
[3] = system: K-562 leukemia
[4] = system: COLO 205 colon
[5] = system: SF-539 CNS
[6] = system: M14 melanoma
[7] = system: OVCAR-5 ovarian
[8] = system: SK-MEL-28 melanoma
[9] = system: HOP-92 NSCLC
[10] = system: HCT-116 colon
[11] = system: NCI-H23 lung
[12] = system: RXF 393 renal
[13] = system: SW-620 colon
[14] = system: MOLT-4 leukemia
[15] = system: SK-OV-3 ovarian
[16] = system: HOP-62 NSCLC
[17] = system: MDA-MB-231 breast
[18] = system: LOX IMVI melanoma
[19] = system: EKVX NSCLC
[20] = system: ACHN renal
[21] = system: SN12C renal
[22] = system: SK-MEL-5 melanoma
[23] = system: MCF7 breast
[24] = system: NCI-H322M lung
[25] = system: MDA-MB-435 melanoma
[26] = system: NCI-H226 lung
[27] = system: RPMI-8226 leukemia
[28] = system: SF-268 CNS
[29] = system: HL-60(TB) leukemia

**Q.** `Cn1cc(-c2ccc3nnc(Sc4ccc5ncccc5c4)n3n2)cn1` was tested. Which GI50 [1] did it give?
**A.** > 100 µM

**Q.** What about the TGI [1] of the same compound?
**A.** > 100 µM

**Q.** And the GI50 [2]?
**A.** > 100 µM

**Q.** What about the TGI [2] of the same compound?
**A.** > 100 µM

**Q.** And the GI50 [3]?
**A.** > 100 µM

**Q.** And the TGI [3]?
**A.** > 100 µM

**Q.** What about the GI50 [4] of the same compound?
**A.** > 100 µM

**Q.** And the TGI [4]?
**A.** > 100 µM

**Q.** And the GI50 [5]?
**A.** > 100 µM

**Q.** What about the TGI [5] of the same compound?
**A.** > 100 µM

**Q.** What about the GI50 [6] of the same compound?
**A.** > 100 µM

**Q.** And the TGI [6]?
**A.** > 100 µM

**Q.** And the GI50 [7]?
**A.** > 100 µM

**Q.** What about the TGI [7] of the same compound?
**A.** > 100 µM

**Q.** What about the GI50 [8] of the same compound?
**A.** > 100 µM

**Q.** And the TGI [8]?
**A.** > 100 µM

**Q.** What about the GI50 [9] of the same compound?
**A.** > 100 µM

**Q.** And the TGI [9]?
**A.** > 100 µM

**Q.** And the GI50 [10]?
**A.** > 100 µM

**Q.** What about the TGI [10] of the same compound?
**A.** > 100 µM

**Q.** What about the GI50 [11] of the same compound?
**A.** > 100 µM

**Q.** What about the TGI [11] of the same compound?
**A.** > 100 µM

**Q.** What about the GI50 [12] of the same compound?
**A.** 38.2 µM

**Q.** What about the TGI [12] of the same compound?
**A.** > 100 µM

**Q.** What about the GI50 [13] of the same compound?
**A.** > 100 µM

**Q.** What about the TGI [13] of the same compound?
**A.** > 100 µM

**Q.** What about the GI50 [14] of the same compound?
**A.** > 100 µM

**Q.** And the TGI [14]?
**A.** > 100 µM

**Q.** And the GI50 [15]?
**A.** > 100 µM

**Q.** And the TGI [15]?
**A.** > 100 µM

**Q.** What about the GI50 [16] of the same compound?
**A.** > 100 µM

**Q.** And the TGI [16]?
**A.** > 100 µM

**Q.** And the GI50 [17]?
**A.** > 100 µM

**Q.** And the TGI [17]?
**A.** > 100 µM

**Q.** What about the GI50 [18] of the same compound?
**A.** > 100 µM

**Q.** And the TGI [18]?
**A.** > 100 µM

**Q.** What about the GI50 [19] of the same compound?
**A.** > 100 µM

**Q.** And the TGI [19]?
**A.** > 100 µM

**Q.** What about the GI50 [20] of the same compound?
**A.** > 100 µM

**Q.** What about the TGI [20] of the same compound?
**A.** > 100 µM

**Q.** What about the GI50 [21] of the same compound?
**A.** > 100 µM

**Q.** What about the TGI [21] of the same compound?
**A.** > 100 µM

**Q.** What about the GI50 [22] of the same compound?
**A.** > 100 µM

**Q.** What about the TGI [22] of the same compound?
**A.** > 100 µM

**Q.** What about the GI50 [23] of the same compound?
**A.** > 100 µM

**Q.** And the TGI [23]?
**A.** > 100 µM

**Q.** And the GI50 [24]?
**A.** > 100 µM

**Q.** And the TGI [24]?
**A.** > 100 µM

**Q.** What about the GI50 [25] of the same compound?
**A.** > 100 µM

**Q.** What about the TGI [25] of the same compound?
**A.** > 100 µM

**Q.** And the GI50 [26]?
**A.** > 100 µM

**Q.** What about the TGI [26] of the same compound?
**A.** > 100 µM

**Q.** What about the GI50 [27] of the same compound?
**A.** > 100 µM

**Q.** And the TGI [27]?
**A.** > 100 µM

**Q.** And the GI50 [28]?
**A.** > 100 µM

**Q.** What about the TGI [28] of the same compound?
**A.** > 100 µM

**Q.** What about the GI50 [29] of the same compound?
**A.** > 100 µM

**Q.** What about the TGI [29] of the same compound?
**A.** > 100 µM
